“Also recorded” adds a separate entry of the source. Values belong to the compound of their own block, whether it stands above or below them. Residues, ends and D or L forms follow the SMILES beside them. No end group written: not given here.
How the values were obtained:
[1] = molecular target: T1, extracellular domain of the human erythropoietin receptor (EPO binding protein, EBP) (Homo sapiens, UniProt P19235); assay: Immobilized EBP based [125I]EPO competition binding assay; conditions: IC50 relative to RWJ61233 (IC50 of 5 μM)
T1 construct: made in house; host or cells: E. coli
T1 sequence (P19235 25-250 limits assumed): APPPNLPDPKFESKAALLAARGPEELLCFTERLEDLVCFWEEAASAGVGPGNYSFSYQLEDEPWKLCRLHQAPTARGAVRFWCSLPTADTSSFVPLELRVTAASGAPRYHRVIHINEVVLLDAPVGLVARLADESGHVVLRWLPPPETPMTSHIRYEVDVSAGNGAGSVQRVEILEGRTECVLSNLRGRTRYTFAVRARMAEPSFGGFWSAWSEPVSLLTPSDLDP
Protocol: The iodoacetyl activation chemistry of Sufolink beads (Pierce Chemical Co, Rockford, Ill.) is specific for free thiols and assures that the linkage is not easily reversible. EBP-Sulfolink beads were made as follows: SulfoLink gel suspension (10 ml) was mixed with coupling buffer (40 ml: 50 mM Tris, pH 8.3, 5 mM EDTA) and the gel was allowed to settle. The supernatant was removed and the EBP (0.3-1 mg/ml in coupling buffer) to be bound was added directly to the washed beads. The mixture was rocked gently for 30 minutes at room temperature, and the beads were allowed to settle for 1 hour at room temperature. […] The amount of EBP which was covalently bound to the beads was determined by comparing the OD280 of the original EBP solution to the total OD280 recovered in the reaction supernatant and the two 20 ml washes.
Binding assays were initiated by the addition of EBP beads (50 μl) to individual reaction tubes. […] The tubes were incubated for five hours (a time period experimentally determined as adequate for the establishment of equilibrium) at room temperature with gentle rocking. […]
Competitive binding analysis assays of candidate peptides were performed as outlined below. […] The columns containing the washed beads were placed in 12×75 mm glass tubes and bound radioactivity levels were determined using a gamma counter.

[2] = molecular target: T2, truncated human erythropoietin receptor (Homo sapiens, UniProt P19235); assay: cell-based
T2 sequence (P19235 25-468 limits assumed): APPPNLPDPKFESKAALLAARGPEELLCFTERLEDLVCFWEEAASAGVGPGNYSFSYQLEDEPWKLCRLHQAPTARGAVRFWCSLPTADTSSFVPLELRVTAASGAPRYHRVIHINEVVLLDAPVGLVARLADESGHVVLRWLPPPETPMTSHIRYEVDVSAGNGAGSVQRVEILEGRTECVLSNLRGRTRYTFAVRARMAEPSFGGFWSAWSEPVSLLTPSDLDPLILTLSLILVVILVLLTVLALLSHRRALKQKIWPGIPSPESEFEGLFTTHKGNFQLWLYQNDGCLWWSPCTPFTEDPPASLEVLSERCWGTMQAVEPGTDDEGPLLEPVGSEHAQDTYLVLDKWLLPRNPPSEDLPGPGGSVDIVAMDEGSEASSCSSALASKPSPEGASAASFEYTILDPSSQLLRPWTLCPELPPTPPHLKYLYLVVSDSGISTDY
Protocol: Cells are counted and resuspended at a concentration of 800,000 cells/ml. Approximately forty thousand cells (50μ) are added to each well of a 96 well microtiter plate. Peptide is added to each well in triplicate. A standard dose response determination is run with each series of peptides. After a forty-two hr incubation (≈2 doubling), each well is pulsed with 1 μCi/well Thymidine. Cells are incubated an additional six hr at which time cells are harvested and counted to assess thymidine incorporation as an indicator of cell proliferation.

[3] = molecular target: T3, human EPO-R (FDCP-1/hEPO-R cells) (Homo sapiens, UniProt P19235); assay: FDCP-1/hEPO-R cell proliferation bioassay; format: cell-based
T3 construct: expressed in transfected cells; host or cells: FDCP-1 (murine hematopoietic progenitor cell line)
T3 sequence (P19235 25-508): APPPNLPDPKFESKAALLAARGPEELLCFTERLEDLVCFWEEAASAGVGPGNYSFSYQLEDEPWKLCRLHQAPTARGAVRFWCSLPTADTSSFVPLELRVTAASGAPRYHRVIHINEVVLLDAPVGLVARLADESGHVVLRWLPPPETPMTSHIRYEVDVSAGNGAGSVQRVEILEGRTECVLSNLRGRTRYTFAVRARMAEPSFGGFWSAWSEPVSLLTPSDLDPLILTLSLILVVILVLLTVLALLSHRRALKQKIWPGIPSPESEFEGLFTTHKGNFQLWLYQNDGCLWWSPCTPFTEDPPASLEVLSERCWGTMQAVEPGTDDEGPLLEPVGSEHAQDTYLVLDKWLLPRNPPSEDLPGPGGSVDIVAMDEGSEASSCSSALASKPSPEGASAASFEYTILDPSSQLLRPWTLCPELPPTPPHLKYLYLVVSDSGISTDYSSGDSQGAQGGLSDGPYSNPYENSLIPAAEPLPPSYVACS
Protocol: One assay utilized FDCP-1, a growth factor dependent murine multi-potential primitive hematopoietic progenitor cell line (see, e.g., Dexter et al. (1980) J. Exp. Med. 152:1036-1047), as the parental cell line. This cell line can proliferate, but not differentiate, when supplemented with WEHI3-conditioned media (a medium that contains IL-3, ATCC number T1B68).
In brief, the cells are grown to half stationary density in the presence of the necessary growth factors. The cells are then washed in PBS and starved for 16-24 hours in whole media without the growth factors. After determining the viability of the cells, stock solutions (in whole media without the growth factors) are made to give about 10^5 cells per 50 microliters. […] Cells (50 microliters) are added to each well and the cells are incubated 24-48 hours, at which point the negative controls should die or be quiescent. Cell proliferation is then measured by techniques known in the art, such as an MTT assay which correlates with ^3 H-thymidine incorporation as an indication of cell proliferation (see, Mosmann (1983) J. Immunol. Methods 65:55).

- Relative Binding [1]: > 100
Compound: RWJ 61721: sequence analog peptide shown only as a drawing in Table 19 (GGTYSEHFGPLTWVKKPQGG)

Compound: CC(C)C[C@@H]1NC(=O)[C@@H]2CCCN2C(=O)CNC(=O)[C@H](Cc2ccccc2)NC(=O)[C@H](Cc2c[nH]cn2)NC(=O)[C@@H](NC(=O)[C@H](CO)NC(=O)[C@H](Cc2ccc([N+](=O)[O-])cc2)NC(=O)[C@@H](NC(=O)CNC(=O)CN)[C@@H](C)O)CSSC[C@@H](C(=O)N[C@@H](CCCCN)C(=O)N2CCC[C@H]2C(=O)N[C@@H](CCC(N)=O)C(=O)NCC(=O)NCC(N)=O)NC(=O)[C@H](C(C)C)NC(=O)[C@H](Cc2c[nH]c3ccccc23)NC(=O)[C@H]([C@@H](C)O)NC1=O [RWJ 61894, GGTXSCHFGPLTWVCKPQGG] (HELM PEPTIDE1{G.G.T.[O=C([C@H](Cc1ccc([N+](=O)[O-])cc1)N[*:1])[*:2]].S.C.H.F.G.P.L.T.W.V.C.K.P.Q.G.G.[am]}$PEPTIDE1,PEPTIDE1,6:R3-15:R3$$$V2.0)
- EC50 [2]: 800 nM

- Relative Binding [1]: 4
Compound: CC(=O)NCC(=O)NCC(=O)N[C@H](C(=O)N[C@@H](Cc1ccc(O)cc1)C(=O)N[C@@H](CO)C(=O)N[C@H]1CSSC[C@@H](C(=O)N[C@@H](CCCCN)C(=O)N2CCC[C@H]2C(=O)N[C@@H](CCC(N)=O)C(=O)NCC(=O)NCC(N)=O)NC(=O)[C@H](C(C)C)NC(=O)[C@H](Cc2c[nH]c3ccccc23)NC(=O)[C@H]([C@@H](C)O)NC(=O)[C@H](CC(C)C)NC(=O)[C@@H]2CCCN2C(=O)CNC(=O)[C@H](Cc2ccccc2)NC(=O)[C@H](Cc2c[nH]cn2)NC1=O)[C@@H](C)O [RWJ 62146] (HELM PEPTIDE1{[ac].G.G.T.Y.S.C.H.F.G.P.L.T.W.V.C.K.P.Q.G.G.[am]}$PEPTIDE1,PEPTIDE1,7:R3-16:R3$$$V2.0)

Compound: Streptavidin: streptavidin alone, control for the complex [reference compound]
- stimulatory effect alone ([3]; tested without peptide): some small stimulatory effect at the highest concentrations; also recorded: marginal activity at high concentrations

Compound: CC(C)C[C@@H]1NC(=O)[C@@H]2CCCN2C(=O)CNC(=O)[C@H](Cc2ccccc2)NC(=O)[C@H](Cc2c[nH]cn2)NC(=O)[C@@H](NC(=O)[C@H](CO)NC(=O)[C@H](Cc2ccc(N)cc2)NC(=O)[C@@H](NC(=O)CNC(=O)CN)[C@@H](C)O)CSSC[C@@H](C(=O)N[C@@H](CCCCN)C(=O)N2CCC[C@H]2C(=O)N[C@@H](CCC(N)=O)C(=O)NCC(=O)NCC(N)=O)NC(=O)[C@H](C(C)C)NC(=O)[C@H](Cc2c[nH]c3ccccc23)NC(=O)[C@H]([C@@H](C)O)NC1=O [RWJ 62019, GGTXSCHFGPLTWVCKPQGG] (HELM PEPTIDE1{G.G.T.[Nc1ccc(C[C@H](N[*:1])C(=O)[*:2])cc1].S.C.H.F.G.P.L.T.W.V.C.K.P.Q.G.G.[am]}$PEPTIDE1,PEPTIDE1,6:R3-15:R3$$$V2.0)
- EC50 [2]: 3000 nM

Compound: CC(C)C[C@@H]1NC(=O)[C@@H]2CCCN2C(=O)CNC(=O)[C@H](Cc2ccccc2)NC(=O)[C@H](Cc2c[nH]cn2)NC(=O)[C@@H](NC(=O)[C@H](CO)NC(=O)[C@H](Cc2ccc(O)cc2)NC(=O)[C@@H](NC(=O)CNC(=O)CN)[C@@H](C)O)CSSC[C@@H](C(=O)N[C@@H](CCCCN)C(=O)N2CCC[C@H]2C(=O)N[C@@H](CCC(N)=O)C(=O)NCC(=O)NCC(=O)N[C@@H](CO)C(=O)N[C@@H](CO)C(=O)N[C@@H](CCCCNC(=O)CCCCCNC(=O)CCCC[C@@H]2SC[C@@H]3NC(=O)N[C@@H]32)C(N)=O)NC(=O)[C@H](C(C)C)NC(=O)[C@H](Cc2c[nH]c3ccccc23)NC(=O)[C@H]([C@@H](C)O)NC1=O [AF11505] (HELM PEPTIDE1{G.G.T.Y.S.C.H.F.G.P.L.T.W.V.C.K.P.Q.G.G.S.S.K.[am]}|PEPTIDE2{[O=C1N[C@H]2[C@H](CS[C@H]2CCCCC(=O)[*:2])N1].[O=C(CCCCCN[*:1])[*:2]]}$PEPTIDE1,PEPTIDE2,23:R3-2:R2|PEPTIDE1,PEPTIDE1,6:R3-15:R3$$$V2.0; N-terminus and C-terminus assumed; bridges inferred)
- EC50 ([3]; free peptides, read-out: EPO-ED50): ~1000 nM

- reduction in EPO-ED50 / increase in potency over the free peptide [3]: one log reduction
Compound: GGTYSCHFGPLTWVCKPQGGSSK+G anti-B: biotinylated peptide preincubated with purified goat anti-biotin IgG at a 2:1 molar ratio (cysteine pairing not given here; also: biotinylated, site not given here, preincubated with goat anti-biotin IgG at 2:1 molar ratio)

Reference: patent US5830851A (Affymax Technologies N.V., priority 1995, dated 1998)
